According to publication PMC10683027, “Discovery of tert-Butyl Ester Based 6-Diazo-5-oxo-L-norleucine Prodrugs for Enhanced Metabolic Stability and Tumor Delivery” (Journal of Medicinal Chemistry, 2023):

Tests used:
[1] = system: P493B lymphoma cells suspended in human plasma; assay: Human tumor cell to plasma partitioning assay; assay type: cell-based; details: 20 μM; 1 h; human plasma fraction
Protocol: Human tumor cell to plasma partitioning assays were conducted as we have previously described.[25] Briefly, P493B lymphoma cells were grown at 37 °C, in a humidified atmosphere with 5% CO2. Cell confluency was estimated, and cells were harvested after achieving >80% confluency and centrifuged at 200g for 5 min at 25 °C. The obtained cell pellet was resuspended in 20 mL of Dulbecco’s phosphate-buffered saline (DPBS; Gibco, USA, cat. no. 14-190-144) maintained at 37 °C, and cell count was determined using an automated cell counter (Bio-Rad, USA). Cell suspension in DPBS was further centrifuged at 200g for 5 min at 25 °C, and the cell pellet was resuspended in human plasma (Innovative Research, USA) for partitioning assessment. The final cell density after resuspending in plasma was 10 million cells/mL of plasma. Partitioning assessment was performed in triplicate. Preincubated (37 °C for 5 min) cell–plasma suspension was spiked with DRP-104 or P11 at a final concentration of 20 μM and incubated at 37 °C for 1 h. Following incubation, a 1 mL aliquot of cell–plasma suspension was centrifuged at 1000g for 5 min at 4 °C, and supernatant plasma as well as the cell pellet was collected and stored at −80 °C until bioanalysis. Both plasma and cell pellet fractions were analyzed for intact prodrug and DON levels. […]

[2] = Stability of P11 in human plasma; assay type: in vitro ADME; details: Figure 3A
Protocol: Briefly, intestinal tissue was homogenized over ice via probe sonication with 1:9 tissue to potassium phosphate buffer (0.1 M) conditions. Prodrugs were spiked in plasma or tissue homogenate at 10 μM final concentration with 0.2% DMSO v/v and incubated in triplicate for 0 and 60 min time points. At each time point, 100 μL of the sample was precipitated with 300 μL of methanol containing internal standard (IS; losartan, 0.5 μM). Precipitated samples were vortexed (30 s) and centrifuged at 10000g for 10 min at 4 °C. After centrifugation, 100 μL of supernatant was aliquoted and submitted for analysis. Prodrug disappearance over time was monitored by liquid chromatography–mass spectrometry (LC–MS) through peak area ratios between the analyte and internal standard.

[3] = Full pharmacokinetic evaluation of P11 in EL4 tumor-bearing mice (intact prodrug and released DON); assay type: in vivo, C57BL/6/CES1–/– mice; details: P11 2.9 mg/kg SC, analyte intact P11
Protocol: (§1) C57BL/6/CES1^–/– mice were obtained as a gift from the United States Army Medical Research Institute of Chemical Defense, Maryland, USA; breeding was performed in the Johns Hopkins animal facility and was conducted according to protocols reviewed and approved by the Johns Hopkins Institutional Animal Care and Use Committee in compliance with the Association for Assessment and Accreditation of Laboratory Animal Care International (AAALAC) and the Public Health Service Policy on the Humane Care and Use of Laboratory Animals (PHS Policy). Male and female C57BL/6 mice (weighing between 25 and 30 g) 6–8 weeks of age were used for the study. The animals were maintained on a 12 h light–dark cycle with ad libitum access to food (certified laboratory food: Teklad 18% Protein Extruded Rodent Diet) and water. EL4 mouse lymphoma cells were obtained as a gift from the laboratory of Dr. Jonathan Powell (Johns Hopkins University, Baltimore, MD) and maintained in RPMI 1640 medium 1X (Corning, cat. no. 10-040-CV) with 10% (v/v) fetal bovine serum (Corning, cat. no. 35-011-CV), 1% (v/v) antimycotic/antibiotic (Corning, cat. no. 30-004-CI), 2 mM L-glutamine (Corning, cat. no. 25-005-CI), and 10 mM HEPES (Corning, cat. no. 25-060-CI) in a 5% (v/v) CO2 and 95% (v/v) air incubator prior to subcutaneous (SC) injection (1 × 10^6 cells in 0.2 mL of phosphate-buffered saline) on the flank of each mouse.
Pharmacokinetic study was performed after tumors grew to a mean volume of around 400 mm^3. […]
Plasma concentration levels of P11 were measured by precipitating 20 μL of plasma sample with 100 μL of methanol containing internal standard (losartan, 0.5 μM), followed by vortex mixing for 30 s and then centrifugation at 16000g for 5 min at 4 °C. […]
Chromatographic analysis was performed on an Agilent ultra-high-performance LC system coupled with an Agilent 6520 QTOF mass spectrometer (Agilent, Santa Clara, CA). […] P11 concentrations were determined by the AUC of high-resolution extracted chromatograms of P11 divided by internal standard (460.2554 m/z/423.1695 m/z). […]

[4] = Single time point pharmacokinetic screening, released DON in plasma and tumor of EL4 tumor-bearing mice; assay type: in vivo, C57BL/6/CES1–/– mice; details: 1 mg/kg DON equivalent SC; 30 min
Protocol: as §1, with “mouse. […]” for “mouse.”

[5] = Stability of P11 in human GI microsomes; assay type: in vitro ADME; details: Figure 3A

## CN(C)CC(=O)N[C@@H](Cc1ccccc1)C(=O)N[C@@H](CCC(=O)C=[N+]=[N-])C(=O)OC(C)(C)C [Prodrug P11, tert-Butyl (S)-6-Diazo-2-((S)-2-(2-(dimethylamino)acetamido)-3-phenylpropanamido)-5-oxohexanoate]
[1]
  stability and DON release in human plasma: stable in human plasma with no DON release
[2]
  stability in human plasma: confirmed
[3]; intestinal tissue
  intestinal tissue levels of intact prodrug (below the limit of quantification): < 0.01 nmol/mL
[3]; tumor
  AUC of intact prodrug, tumor: 0.092 nmol·h/g
[3]; both sexes, C57BL/6/CES1–/–, mouse, plasma
  AUC at 6 h: 0.15 µM·h
[4]
  preferential DON tumor versus plasma delivery: maintained the preferential DON tumor versus plasma delivery
[5]
  stability in human GI microsomes: confirmed
